Data set [1] is described as follows: Safety (TRAEs/TEAEs), CC-90010-GBM-002 Parts A and B. The format is in vivo. The source says:
This was then followed by a break in treatment therapy, e.g., from 1 to up to 4 weeks. […] Adjuvant therapy cycles were repeated from 2 to 6 times. After adjuvant therapy, was a monotherapy treatment.
The demographics and characteristics of treated patients are described in the below table.

For data set [2] the following is noted: cited from earlier work.
For the next data set, the system named is glioblastoma. As to conditions: in vivo; cited from earlier work.

`Cn1nnc2c(C(N)=O)ncn2c1=O` [TMZ, 3,4-dihydro-3-methyl-4-oxoimidazo[5,1-d]-as-tetrazine-8-carboxamide, reference compound]: in data set [1] (Part B arm A), the “patients with TRAEs related to TMZ” value is recorded as 75%, the “patients with nausea related to TMZ” value came to 46% and the “patients with thrombocytopenia related to TMZ” value stood at 46%. For the same molecule, in data set [1] (Part B arm B), the “patients with TRAEs related to TMZ” value is 73% and the “patients with thrombocytopenia related to TMZ” value is reported as 40%.

In the case of `C#Cc1cccc(Nc2ncnc3cc(OCCOC)c(OCCOC)cc23)c1` [erlotinib], the “tissue:plasma ratio” value in data set [2] (brain tumor tissue) is on record as 0.06-0.08.

Consider `COc1cc2ncnc(Nc3ccc(F)c(Cl)c3)c2cc1OCCCN1CCOCC1` [gefitinib], for which, in data set [2] (glioblastoma tumor tissue), the “median concentration in tumor tissue” value is reported as 4100 ng/g. For the same molecule, the “median concentration in plasma” value in data set [2] (in vivo) is listed as 181 ng/mL. In addition, the “antitumor activity in glioblastoma” value in the data set with glioblastoma is on record as “neither lapatinib nor gefitinib have shown evidence of antitumor activity”.

For `CS(=O)(=O)CCNCc1ccc(-c2ccc3ncnc(Nc4ccc(OCc5cccc(F)c5)c(Cl)c4)c3c2)o1` [lapatinib], the “tissue:plasma ratio, mean” value in data set [2] (brain tumor tissue) is 13.0. The “antitumor activity in glioblastoma” value in the data set with glioblastoma is reported as “neither lapatinib nor gefitinib have shown evidence of antitumor activity”.

As to `O=C(c1cc(Cc2n[nH]c(=O)c3ccccc23)ccc1F)N1CCN(C(=O)C2CC2)CC1` [olaparib], the “tissue:plasma ratio, mean” value in data set [2] (brain tumor tissue) was 0.25.
